Experimental data as given in US20190119270A1, “N-Oxide Compound and Its Use in Treating Cancer” (AstraZeneca AB, priority 2016, published 2019).

Assays:
Assay type in all cases: cell-based
PI3Kα = PI3Kα (Homo sapiens, UniProt P42336); assay: PI3K cellular potency assay (phospho-Akt T308 ELISA in BT474 cells); conditions: 2 h, phospho-Akt (T308); read-out: Assay c) PI3Kα Cell IC50
From the text: This assay was used to measure PI3K-a inhibition in cells. PDK1 was identified as the upstream activation loop kinase of protein kinase B (Akt1), which is essential for the activation of PKB. Activation of the lipid kinase phosphoinositide 3 kinase (PI3K) is critical for the activation of PKB by PDK1.
Following ligand stimulation of receptor tyrosine kinases, PI3K is activated, which converts PIP2 to PIP3, which is bound by the PH domain of PDK1 resulting in recruitment of PDK1 to the plasma membrane where it phosphorylates AKT at Thr308 in the activation loop.
The aim of this cell-based mode of action assay is to identify compounds that inhibit PDK activity or recruitment of PDK1 to membrane by inhibiting PI3K activity. Phosphorylation of phospho-Akt (T308) in BT474c cells following treatment with compounds for 2 h is a direct measure of PDK1 and indirect measure of PI3K activity. […]
After 20 minutes, the cell lysates were transferred into ELISA plates (Greiner #781077) which had been pre-coated with an anti total-AKT antibody in PBS buffer and non-specific binding was blocked with 1% BSA in PBS containing 0.05% Tween 20. […] Plates were read using a Tecan Safire plate reader using 325 nm excitation and 420 nm emission wavelengths respectively. […]

ATM = target: T1, ATM (Homo sapiens, UniProt Q13315); assay: ATM cellular potency assay (pATM Ser1981 in irradiated HT29 cells); conditions: X-ray irradiation, pATM (Ser1981); read-out: Assay a) ATM Cell IC50
T1 construct: endogenous in cells; host or cells: HT29 cells (ECACC #85061109)
From the text: Cellular irradiation induces DNA double strand breaks and rapid intermolecular autophosphorylation of serine 1981 that causes dimer dissociation and initiates cellular ATM kinase activity. Most ATM molecules in the cell are rapidly phosphorylated on this site after doses of radiation as low as 0.5 Gy, and binding of a phosphospecific antibody is detectable after the introduction of only a few DNA double-strand breaks in the cell.
The rationale of the pATM assay is to identify inhibitors of ATM in cells. HT29 cells are incubated with test compounds for lhr prior to X-ray-irradiation. 1 h later the cells are fixed and stained for pATM (Ser1981). The fluorescence is read on the arrayscan imaging platform.
HT29 cells (ECACC #85061109) were seeded into 384 well assay plates (Costar #3712) at a density of 3500 cells/well in 40 μl EMEM medium containing 1% L glutamine and 10% FBS and allowed to adhere overnight. […]
Phospho-ATM Ser1981 antibody (Millipore #MAB3806) was diluted 10000 fold in PBS containing 0.05% polysorbate/Tween and 3% BSA and 20 μl was added to each well and incubated over night at r.t. […] After 1 h incubation at r.t., the plates were washed three times with 50 μl/well PBS, using a Biotek EL405 plate washer, and plates were sealed and kept in PBS at 4° C. until read. Plates were read using an ArrayScan VTI instrument, using an XF53 filter with 10× objective. […]

mTOR = target: T2, mTOR (Homo sapiens, UniProt P42345); assay: mTOR cellular potency assay (phospho-AKT Ser473 in MDA-MB-468 cells); conditions: 2 hours, phospho-AKT (Ser473), protocol A or B; read-out: Assay d) mTOR Cell IC50
T2 construct: endogenous in cells; host or cells: MDA-MB-468 cells
Description: The phospho-AKTser473 cell assay was performed in the MDA-MB-468 cell line, a PTEN null breast adenocarcinoma human cell line. As a consequence of the lack of PTEN, pAKT is constitutively activated which eliminates the requirement for stimulation to induce phosphorylation.
MDA-MB-468 cells were cultured in cell media composed of DMEM (Dulbecco's modified Eagle's medium #D6546)), 10% (v/v) Foetal Calf Serum and 1% (v/v) L-Glutamine. After harvesting, cells were dispensed into black, 384-well Costar plates (#3712, Corning) to give 1500 cells per well in a total volume of 40 μl cell media, and were incubated overnight at 37° C., 90% relative humidity and 5% CO2 in a rotating incubator. […]
Stained cell plates were covered with black seals, and then read on the Acumen (TTP Labtech) plate reader. The primary channel (green fluorescence, 488 nm) is used to set the intensity settings for the max/min cut off to allow for weekly variation in staining and the ‘AKT+: No of objects (No)’ data is used for the analysis. Data was analysed and IC50s were calculated using Genedata Screener® software. […]
Stained cell plates were covered with black seals, and then read on the Cell Insight imaging platform (Thermo Scientific), with a 10× objective. […] The secondary channel (Green […], BGRFR_485_20) measures pAKT staining Data was analysed and IC5os were calculated using Genedata Screener® software.

ATR = target: T3, ATR (Homo sapiens, UniProt Q13535); assay: ATR cellular potency assay (pChk1 Ser345 in HT29 cells with 4NQO); conditions: pChk1 (Ser 345); read-out: Assay b) ATR Cell IC50
T3 construct: endogenous in cells; host or cells: HT29 cells (ECACC #85061109)
From the text: ATR is a PI 3-kinase-related kinase which phosphorylates multiple substrates on serine or threonine residues in response to DNA damage during or replication blocks. Chk1, a downstream protein kinase of ATR, plays a key role in DNA damage checkpoint control. Activation of Chk1 involves phosphorylation of Ser317 and Ser345 (the latter regarded as the preferential target for phosphorylation/activation by ATR). This was a cell based assay to measure inhibition of ATR kinase, by measuring a decrease in phosphorylation of Chk1 (Ser 345) in HT29 cells, following treatment with compound of Formula (I) and the UV mimetic 4NQO (Sigma #N8141).
HT29 cells (ECACC #85061109) were seeded into 384 well assay plates (Costar #3712) at a density of 6000 cells/well in 40 μl EMEM medium containing 1% L glutamine and 10% FBS and allowed to adhere overnight. […]
Phospho-Chk1 Ser 345 antibody (Cell Signalling Technology #2348) was diluted 150 fold in PBS containing 0.05% polysorbate/Tween and 15 μl was added to each well and incubated over night at r.t. […] After 2 h incubation at r.t., the plates were washed three times with 50 μl/well PBS, using a Biotek EL405 plate washer, and plates were then sealed with black plate seals until read. Plates were read using an ArrayScan VTI instrument, using an XF53 filter with 10× objective. […]

Chain of PI3Kα (P27986 2-724): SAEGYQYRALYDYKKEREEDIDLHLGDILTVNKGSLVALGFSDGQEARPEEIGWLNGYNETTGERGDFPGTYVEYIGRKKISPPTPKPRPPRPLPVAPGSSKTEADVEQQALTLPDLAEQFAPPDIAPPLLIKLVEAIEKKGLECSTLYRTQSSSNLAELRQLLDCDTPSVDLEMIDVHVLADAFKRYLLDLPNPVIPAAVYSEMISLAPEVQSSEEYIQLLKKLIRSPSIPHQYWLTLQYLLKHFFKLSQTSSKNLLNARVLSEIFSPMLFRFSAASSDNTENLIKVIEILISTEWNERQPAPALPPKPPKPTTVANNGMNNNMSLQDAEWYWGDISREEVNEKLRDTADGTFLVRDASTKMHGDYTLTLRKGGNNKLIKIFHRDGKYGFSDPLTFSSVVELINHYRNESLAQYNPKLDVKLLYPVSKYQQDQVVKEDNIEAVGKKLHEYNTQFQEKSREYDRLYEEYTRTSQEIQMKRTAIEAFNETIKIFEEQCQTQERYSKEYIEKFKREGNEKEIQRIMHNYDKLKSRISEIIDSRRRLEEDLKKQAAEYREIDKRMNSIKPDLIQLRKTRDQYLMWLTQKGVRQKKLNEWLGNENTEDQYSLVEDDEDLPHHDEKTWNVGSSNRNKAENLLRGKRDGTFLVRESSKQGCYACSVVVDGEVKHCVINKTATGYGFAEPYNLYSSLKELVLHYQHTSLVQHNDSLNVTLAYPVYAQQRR
Chain of PI3Kα (P42336 whole entry): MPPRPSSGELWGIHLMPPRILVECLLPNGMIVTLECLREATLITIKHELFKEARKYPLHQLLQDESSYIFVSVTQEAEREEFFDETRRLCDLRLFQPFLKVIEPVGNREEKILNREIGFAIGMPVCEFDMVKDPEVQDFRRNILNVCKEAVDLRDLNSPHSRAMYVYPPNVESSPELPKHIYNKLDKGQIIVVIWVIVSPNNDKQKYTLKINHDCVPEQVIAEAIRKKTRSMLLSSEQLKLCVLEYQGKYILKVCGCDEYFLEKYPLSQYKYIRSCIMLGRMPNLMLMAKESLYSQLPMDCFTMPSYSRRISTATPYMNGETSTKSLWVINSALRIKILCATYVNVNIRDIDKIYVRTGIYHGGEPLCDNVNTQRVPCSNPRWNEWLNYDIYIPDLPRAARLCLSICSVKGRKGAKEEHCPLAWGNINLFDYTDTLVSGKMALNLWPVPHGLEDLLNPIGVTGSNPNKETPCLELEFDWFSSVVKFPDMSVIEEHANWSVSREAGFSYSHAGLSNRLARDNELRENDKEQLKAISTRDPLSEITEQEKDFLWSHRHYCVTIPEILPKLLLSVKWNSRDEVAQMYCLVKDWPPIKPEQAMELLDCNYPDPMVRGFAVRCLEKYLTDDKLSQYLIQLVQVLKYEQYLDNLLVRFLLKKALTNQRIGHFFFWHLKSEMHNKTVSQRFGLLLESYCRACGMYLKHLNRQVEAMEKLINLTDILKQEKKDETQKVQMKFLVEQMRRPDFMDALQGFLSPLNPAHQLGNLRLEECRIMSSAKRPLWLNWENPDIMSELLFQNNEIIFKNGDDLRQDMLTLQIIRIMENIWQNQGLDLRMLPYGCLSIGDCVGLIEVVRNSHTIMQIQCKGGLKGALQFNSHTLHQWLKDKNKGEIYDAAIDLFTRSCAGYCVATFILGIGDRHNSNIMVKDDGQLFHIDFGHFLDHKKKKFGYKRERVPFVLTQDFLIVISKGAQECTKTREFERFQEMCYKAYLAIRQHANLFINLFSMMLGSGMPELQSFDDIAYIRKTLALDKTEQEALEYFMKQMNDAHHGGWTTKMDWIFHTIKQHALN
T1 sequence (Q13315 whole entry): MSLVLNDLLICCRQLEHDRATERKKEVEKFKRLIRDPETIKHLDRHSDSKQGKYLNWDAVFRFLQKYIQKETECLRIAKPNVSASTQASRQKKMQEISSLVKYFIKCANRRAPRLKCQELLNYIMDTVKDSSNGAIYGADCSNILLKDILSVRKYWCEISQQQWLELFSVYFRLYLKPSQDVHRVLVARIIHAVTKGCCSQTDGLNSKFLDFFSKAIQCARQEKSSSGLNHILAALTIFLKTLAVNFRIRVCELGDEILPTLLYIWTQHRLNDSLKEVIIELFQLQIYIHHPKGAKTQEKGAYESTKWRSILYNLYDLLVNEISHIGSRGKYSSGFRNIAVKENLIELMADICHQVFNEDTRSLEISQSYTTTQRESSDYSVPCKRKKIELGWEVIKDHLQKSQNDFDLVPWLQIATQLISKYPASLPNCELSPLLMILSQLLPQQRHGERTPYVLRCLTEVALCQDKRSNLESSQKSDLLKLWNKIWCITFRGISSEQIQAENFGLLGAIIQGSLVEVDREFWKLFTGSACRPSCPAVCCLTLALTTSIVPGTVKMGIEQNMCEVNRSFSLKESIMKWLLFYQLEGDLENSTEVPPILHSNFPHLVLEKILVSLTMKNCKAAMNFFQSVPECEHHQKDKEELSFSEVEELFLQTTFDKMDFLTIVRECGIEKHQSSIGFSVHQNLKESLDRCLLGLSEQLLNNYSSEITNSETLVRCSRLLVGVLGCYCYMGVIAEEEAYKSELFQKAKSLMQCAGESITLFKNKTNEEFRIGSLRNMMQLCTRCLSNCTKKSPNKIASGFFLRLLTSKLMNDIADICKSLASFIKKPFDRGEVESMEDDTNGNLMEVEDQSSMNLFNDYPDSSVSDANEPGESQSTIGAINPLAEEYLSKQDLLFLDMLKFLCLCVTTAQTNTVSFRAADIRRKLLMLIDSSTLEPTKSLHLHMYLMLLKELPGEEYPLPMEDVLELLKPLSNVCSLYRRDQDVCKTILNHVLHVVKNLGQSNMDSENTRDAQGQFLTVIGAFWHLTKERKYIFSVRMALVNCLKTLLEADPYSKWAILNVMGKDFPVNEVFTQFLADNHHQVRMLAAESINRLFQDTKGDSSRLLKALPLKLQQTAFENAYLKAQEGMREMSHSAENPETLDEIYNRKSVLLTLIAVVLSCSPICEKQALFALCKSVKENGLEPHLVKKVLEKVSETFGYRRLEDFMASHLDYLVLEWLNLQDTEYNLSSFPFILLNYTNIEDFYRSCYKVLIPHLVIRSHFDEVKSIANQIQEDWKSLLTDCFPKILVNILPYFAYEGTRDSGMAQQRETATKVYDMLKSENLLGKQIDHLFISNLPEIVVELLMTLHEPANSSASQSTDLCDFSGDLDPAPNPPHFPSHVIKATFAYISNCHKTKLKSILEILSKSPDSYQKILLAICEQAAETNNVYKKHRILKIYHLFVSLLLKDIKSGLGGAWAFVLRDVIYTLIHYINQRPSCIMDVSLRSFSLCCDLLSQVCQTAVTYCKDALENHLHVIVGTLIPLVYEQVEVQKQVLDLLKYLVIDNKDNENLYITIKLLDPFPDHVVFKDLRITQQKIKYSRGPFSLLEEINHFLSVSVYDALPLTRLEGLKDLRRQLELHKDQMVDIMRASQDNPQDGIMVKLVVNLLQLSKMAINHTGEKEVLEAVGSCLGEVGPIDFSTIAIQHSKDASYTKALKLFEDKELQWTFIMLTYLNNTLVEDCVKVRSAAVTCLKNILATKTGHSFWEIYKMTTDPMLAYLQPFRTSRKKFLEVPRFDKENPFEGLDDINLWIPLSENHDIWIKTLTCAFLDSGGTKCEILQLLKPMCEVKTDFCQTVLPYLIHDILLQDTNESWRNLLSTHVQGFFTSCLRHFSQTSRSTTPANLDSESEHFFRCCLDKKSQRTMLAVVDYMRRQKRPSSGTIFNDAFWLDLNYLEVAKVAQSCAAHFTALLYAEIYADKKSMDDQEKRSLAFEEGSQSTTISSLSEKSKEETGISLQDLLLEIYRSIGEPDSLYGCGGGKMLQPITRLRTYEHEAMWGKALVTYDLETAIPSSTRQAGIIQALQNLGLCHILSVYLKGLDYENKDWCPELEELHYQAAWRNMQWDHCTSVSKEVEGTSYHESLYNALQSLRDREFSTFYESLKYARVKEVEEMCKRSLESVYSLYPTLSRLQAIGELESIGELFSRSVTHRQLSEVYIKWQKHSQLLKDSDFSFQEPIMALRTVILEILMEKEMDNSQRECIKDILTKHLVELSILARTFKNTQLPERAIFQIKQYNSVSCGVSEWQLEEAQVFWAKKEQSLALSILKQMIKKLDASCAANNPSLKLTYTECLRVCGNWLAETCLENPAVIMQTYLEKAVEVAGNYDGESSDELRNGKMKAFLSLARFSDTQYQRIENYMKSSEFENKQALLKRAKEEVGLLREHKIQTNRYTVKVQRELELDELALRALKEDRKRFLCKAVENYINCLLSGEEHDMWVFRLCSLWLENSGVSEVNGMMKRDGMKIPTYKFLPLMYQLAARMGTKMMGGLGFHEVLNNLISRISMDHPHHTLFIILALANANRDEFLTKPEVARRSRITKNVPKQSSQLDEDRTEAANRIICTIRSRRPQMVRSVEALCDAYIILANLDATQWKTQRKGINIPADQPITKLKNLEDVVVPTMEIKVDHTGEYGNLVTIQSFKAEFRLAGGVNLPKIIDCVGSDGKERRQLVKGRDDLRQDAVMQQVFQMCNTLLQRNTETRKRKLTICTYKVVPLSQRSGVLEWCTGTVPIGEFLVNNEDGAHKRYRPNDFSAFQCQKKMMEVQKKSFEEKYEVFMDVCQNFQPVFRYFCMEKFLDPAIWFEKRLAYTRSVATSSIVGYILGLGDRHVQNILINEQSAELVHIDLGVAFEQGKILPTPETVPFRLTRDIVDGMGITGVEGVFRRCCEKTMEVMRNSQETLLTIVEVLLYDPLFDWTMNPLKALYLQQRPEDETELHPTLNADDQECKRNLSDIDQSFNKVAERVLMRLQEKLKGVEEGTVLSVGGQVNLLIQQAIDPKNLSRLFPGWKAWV

SMILES: Cn1c(=O)n(C2CCOCC2)c2c3cc(-c4ccc(OCCC[N+](C)(C)[O-])nc4)ccc3ncc21 [Example 1]
- IC50 (PI3Kα): 17.8 µM
- IC50 (ATM): 0.0054 µM
- IC50 (mTOR): > 1.25 µM
- IC50 (ATR): 10.3 µM
